# Test results reported in US12325706B2, “Polymorphic form of sepiapterin” (PTC Therapeutics MP, Inc., priority 2016, dated 2025).
# “Also recorded” adds a separate entry of the source.
# Assays:
# Assay type in all cases: physicochemical
# [1] = Storage stability of sepiapterin polymorph forms, form change by XRD; settings: 10% RH
# Description: (§1) Form A and F samples were placed in chambers with silica gel to remove water (the relative humidity was measured to be ˜10% RH) at different temperatures. Form D samples were placed in chambers with water (relative humidity was estimated to be ˜100% RH) at different temperatures.
# (§2) The HPLC purities and XRD patterns were obtained for each of Form A/F/D samples stored at various temperatures.
# [2] = Storage stability of sepiapterin polymorph forms, HPLC purity; parameters: Impurity RRT 1.06 (HPLC) / Impurity RRT 1.08 (HPLC) / Impurity RRT 1.17 (HPLC) / Impurity RRT 1.21 (HPLC) / Impurity RRT 1.25 (HPLC) / Impurity RRT 0.62 (HPLC) / Impurity RRT 0.89 (HPLC) / Impurity RRT 0.95 (HPLC) / Impurity RRT 0.60 (HPLC): unit not given here; settings: for % of Initial / Purity (area %): 10% RH
# Description: as §1, §2
# Samples of sepiapterin free base polymorph Forms D, F, and A were stored at room temperature (RT), 35° C., and 50° C. The samples were analyzed by HPLC at 1 week and 4 week intervals.
# [3] = Stability of crystalline Form A to grinding and sieving (XRPD); settings: mortar and pestle, 140 mesh sieve
# Description: A weight loss of 5.3% was observed up to 150° C. on TGA. […] (peak temperature). The starting material contained large particles with size over 100 μm. It was ground and characterized by XRPD, TGA and DSC. […] A weight loss of 1.9% was observed after N2 purging for 30 min to remove the absorbed water, followed by a second-step weight loss of 13.7% from 30° C. to 150° C. on TGA. […] (peak temperature).
# Crystalline form A of sepiapterin of the invention was subjected to grinding and sieving process comprising grinding with a mortar and pestle and passing the material through a 140 mesh sieve. […] This process was repeated until all material was passed through the sieve.
# [4] = Approximate solubility of starting material at RT
# [5] = 35° C./10% RH, 1 w, listed as Polymorph A
# [6] = 35° C./10% RH, 4 w, listed as Polymorph A
# [7] = 50° C./10% RH, 1 w, listed as Polymorph A
# [8] = 50° C./10% RH, 4 w, listed as Polymorph A
# [9] = RT/10% RH, 1 w, listed as Polymorph A
# [10] = RT/10% RH, 4 w, listed as Polymorph A
structure (smiles),measurement,setting,value
"C[C@H](O)C(=O)C1=Nc2c(nc(N)[nH]c2=O)NC1 [Form A, sepiapterin]",Form change,"[1]; storage 1 week, 35° C.",No
same,Form change,"[1]; storage 1 week, 50° C.",No
same,Form change,"[1]; storage 1 week, RT",No
same,Form change,"[1]; storage 4 weeks, 35° C.",No
same,Form change,"[1]; storage 4 weeks, 50° C.",No
same,Form change,"[1]; storage 4 weeks, RT",No
same,Impurity RRT 0.62 (HPLC),"[2]; 35° C./10% RH, 1 w",0.24
same,Impurity RRT 0.89 (HPLC),"[2]; 35° C./10% RH, 1 w",<0.05
same,Impurity RRT 1.06 (HPLC),"[2]; 35° C./10% RH, 1 w",<0.05
same,Impurity RRT 1.21 (HPLC),"[2]; 35° C./10% RH, 1 w",<0.05
same,Impurity RRT 1.25 (HPLC),"[2]; 35° C./10% RH, 1 w",<0.05
same,Impurity RRT 0.95 (HPLC),[2]; [5],1.36
same,Impurity RRT 1.08 (HPLC),[2]; [5],0.28
same,Impurity RRT 1.17 (HPLC),[2]; [5],0.16
same,"Sepiapterin RRT 1.00 (HPLC), amount of sepiapterin",[2]; [5],97.97%
same,Impurity RRT 0.62 (HPLC),"[2]; 35° C./10% RH, 4 w",1.03
same,Impurity RRT 0.89 (HPLC),"[2]; 35° C./10% RH, 4 w",<0.05
same,Impurity RRT 1.06 (HPLC),"[2]; 35° C./10% RH, 4 w",<0.05
same,Impurity RRT 1.08 (HPLC),"[2]; 35° C./10% RH, 4 w",<0.05
same,Impurity RRT 1.21 (HPLC),"[2]; 35° C./10% RH, 4 w",<0.05
same,Impurity RRT 1.25 (HPLC),"[2]; 35° C./10% RH, 4 w",<0.05
same,Impurity RRT 0.95 (HPLC),[2]; [6],2.70
same,Impurity RRT 1.17 (HPLC),[2]; [6],0.16
same,"Sepiapterin RRT 1.00 (HPLC), amount of sepiapterin",[2]; [6],96.06%
same,Impurity RRT 0.62 (HPLC),"[2]; 50° C./10% RH, 1 w",0.68
same,Impurity RRT 0.89 (HPLC),"[2]; 50° C./10% RH, 1 w",<0.05
same,Impurity RRT 1.06 (HPLC),"[2]; 50° C./10% RH, 1 w",0.45
same,Impurity RRT 1.21 (HPLC),"[2]; 50° C./10% RH, 1 w",<0.05
same,Impurity RRT 1.25 (HPLC),"[2]; 50° C./10% RH, 1 w",<0.05
same,Impurity RRT 0.95 (HPLC),[2]; [7],3.48
same,Impurity RRT 1.08 (HPLC),[2]; [7],0.08
same,Impurity RRT 1.17 (HPLC),[2]; [7],0.16
same,"Sepiapterin RRT 1.00 (HPLC), amount of sepiapterin",[2]; [7],95.15%
same,Impurity RRT 0.62 (HPLC),"[2]; 50° C./10% RH, 4 w",2.59
same,Impurity RRT 0.89 (HPLC),"[2]; 50° C./10% RH, 4 w",0.06
same,Impurity RRT 1.06 (HPLC),"[2]; 50° C./10% RH, 4 w",<0.05
same,Impurity RRT 1.17 (HPLC),"[2]; 50° C./10% RH, 4 w",0.17
same,Impurity RRT 1.21 (HPLC),"[2]; 50° C./10% RH, 4 w",0.06
same,Impurity RRT 1.25 (HPLC),"[2]; 50° C./10% RH, 4 w",0.11
same,Impurity RRT 0.95 (HPLC),[2]; [8],7.67
same,Impurity RRT 1.08 (HPLC),[2]; [8],0.85
same,"Sepiapterin RRT 1.00 (HPLC), amount of sepiapterin",[2]; [8],88.49%
same,"Sepiapterin RRT 1.00 (HPLC), amount of sepiapterin","[2]; 50° C./10% RH, 4 w, listed as polymorph A",88.49%
same,Impurity RRT 0.89 (HPLC),[2]; Initial,<0.05
same,Impurity RRT 1.06 (HPLC),[2]; Initial,<0.05
same,Impurity RRT 1.08 (HPLC),[2]; Initial,<0.05
same,Impurity RRT 1.17 (HPLC),[2]; Initial,0.17
same,Impurity RRT 1.21 (HPLC),[2]; Initial,<0.05
same,Impurity RRT 1.25 (HPLC),[2]; Initial,<0.05
same,Impurity RRT 0.62 (HPLC),"[2]; Initial, listed as Polymorph A",0.08
same,Impurity RRT 0.95 (HPLC),"[2]; Initial, listed as Polymorph A",0.42
same,"Sepiapterin RRT 1.00 (HPLC), amount of sepiapterin","[2]; Initial, listed as Polymorph A",99.33%
same,"Sepiapterin RRT 1.00 (HPLC), amount of sepiapterin","[2]; Initial, listed as polymorph A",99.33%
same,Impurity RRT 0.62 (HPLC),"[2]; RT/10% RH, 1 w",0.16
same,Impurity RRT 0.89 (HPLC),"[2]; RT/10% RH, 1 w",<0.05
same,Impurity RRT 1.06 (HPLC),"[2]; RT/10% RH, 1 w",<0.05
same,Impurity RRT 1.17 (HPLC),"[2]; RT/10% RH, 1 w",0.16
same,Impurity RRT 1.21 (HPLC),"[2]; RT/10% RH, 1 w",<0.05
same,Impurity RRT 1.25 (HPLC),"[2]; RT/10% RH, 1 w",<0.05
same,Impurity RRT 0.95 (HPLC),[2]; [9],0.77
same,Impurity RRT 1.08 (HPLC),[2]; [9],0.11
same,"Sepiapterin RRT 1.00 (HPLC), amount of sepiapterin",[2]; [9],98.80%
same,Impurity RRT 0.62 (HPLC),"[2]; RT/10% RH, 4 w",0.37
same,Impurity RRT 0.89 (HPLC),"[2]; RT/10% RH, 4 w",<0.05
same,Impurity RRT 1.06 (HPLC),"[2]; RT/10% RH, 4 w",<0.05
same,Impurity RRT 1.08 (HPLC),"[2]; RT/10% RH, 4 w",<0.05
same,Impurity RRT 1.17 (HPLC),"[2]; RT/10% RH, 4 w",0.16
same,Impurity RRT 1.21 (HPLC),"[2]; RT/10% RH, 4 w",<0.05
same,Impurity RRT 1.25 (HPLC),"[2]; RT/10% RH, 4 w",<0.05
same,Impurity RRT 0.95 (HPLC),[2]; [10],1.29
same,"Sepiapterin RRT 1.00 (HPLC), amount of sepiapterin",[2]; [10],98.18%
same,Purity of initial samples by HPLC,"[2]; initial, before storage, listed as Form λ",99.3 area %
same,% of Initial,"[2]; storage 1 week, 35° C.",98.6%
same,Purity (area %),"[2]; storage 1 week, 35° C.",98.0 area %
same,% of Initial,"[2]; storage 1 week, 50° C.",95.8%
same,Purity (area %),"[2]; storage 1 week, 50° C.",95.2 area %
same,% of Initial,"[2]; storage 1 week, RT",99.5%
same,Purity (area %),"[2]; storage 1 week, RT",98.8 area %
same,% of Initial,"[2]; storage 4 weeks, 35° C.",96.7%
same,Purity (area %),"[2]; storage 4 weeks, 35° C.",96.1 area %
same,% of Initial,"[2]; storage 4 weeks, 50° C.",89.1%
same,Purity (area %),"[2]; storage 4 weeks, 50° C.",88.5 area %
same,% of Initial,"[2]; storage 4 weeks, RT",98.8%
same,Purity (area %),"[2]; storage 4 weeks, RT",98.2 area %
same,"Stability on storage as determined by HPLC, comparison of forms in words","[2]; storage up to 4 weeks at RT, 35° C., 50° C.",significantly less stability
same,Physical form stability to grinding and sieving (XRPD),[3],no form change was observed after grinding; also recorded: stable to the grinding and sieving process; also recorded: confirms the physical form stability
same,solubility,"[4]; organic solvent or mixture, 1,4-Dioxane, RT",< 1700 µg/mL
same,solubility,"[4]; organic solvent or mixture, 2-MeTHF, RT",< 2000 µg/mL
same,solubility,"[4]; organic solvent or mixture, ACN, RT",< 1700 µg/mL
same,solubility,"[4]; organic solvent or mixture, Acetone, RT",< 1800 µg/mL
same,solubility,"[4]; organic solvent or mixture, CHCl3, RT",< 1600 µg/mL
same,solubility,"[4]; organic solvent or mixture, DCM, RT",< 1500 µg/mL
same,solubility,"[4]; organic solvent or mixture, DMAc, RT",> 28000 µg/mL
same,solubility,"[4]; organic solvent or mixture, DMSO, RT",> 34000 µg/mL
same,solubility,"[4]; organic solvent or mixture, EtOAc, RT",< 2500 µg/mL
same,solubility,"[4]; organic solvent or mixture, EtOH, RT",< 1500 µg/mL
same,solubility,"[4]; organic solvent or mixture, IPA, RT",< 1300 µg/mL
same,solubility,"[4]; organic solvent or mixture, IPAc, RT",< 2700 µg/mL
same,solubility,"[4]; organic solvent or mixture, MIBK, RT",< 2000 µg/mL
same,solubility,"[4]; organic solvent or mixture, MTBE, RT",< 2000 µg/mL
same,solubility,"[4]; organic solvent or mixture, MeOH, RT",1700 to 3400 µg/mL
same,solubility,"[4]; organic solvent or mixture, NMP, RT",> 48000 µg/mL
same,solubility,"[4]; organic solvent or mixture, THF, RT",< 1900 µg/mL
same,solubility,"[4]; organic solvent or mixture, Toluene, RT",< 2400 µg/mL
same,solubility,"[4]; organic solvent or mixture, n-Heptane, RT",< 2100 µg/mL
same,solubility,"[4]; water, H2O, RT",1600 to 3200 µg/mL
